# Experimental data as given in PMC4450297, “Screening Active Compounds from Garcinia Species Native to China Reveals Novel Compounds Targeting the STAT/JAK Signaling Pathway” (BioMed Research International, 2015).
# Assays:
# HCC1395 = assay: Cell panel screen (CellTiter-Glo); format: cell-based, human; conditions: Homo sapiens; HCC1395 (Breast), 20 micromolar, 72 hrs; read-out: Percent Inhibition
# Summary of the method: (§1)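 Tested once at 20 μM (final) over 72 h in cells cultured with 10% FBS. Luciferase/ATP luminescence read-out, background-corrected and normalised to vehicle controls.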
# BT-549 = assay: Cell panel screen (CellTiter-Glo); format: cell-based, human; conditions: Homo sapiens; BT-549 (Breast), 20 micromolar, 72 hrs; read-out: Percent Inhibition
# Summary of the method: as §1
# NCI-H2405 = assay: Cell panel screen (CellTiter-Glo); format: cell-based, human; conditions: Homo sapiens; NCI-H2405 (Lung), 20 micromolar, 72 hrs; read-out: Percent Inhibition
# Summary of the method: as §1
# HEC-1-A = assay: Cell panel screen (CellTiter-Glo); format: cell-based, human; conditions: Homo sapiens; HEC-1-A (Uterus), 20 micromolar, 72 hrs; read-out: Percent Inhibition
# Summary of the method: as §1
# Bel-7402 = assay: Cell panel screen (CellTiter-Glo); format: cell-based, human; conditions: Homo sapiens; Bel-7402 (Liver), 20 micromolar, 72 hrs; read-out: Percent Inhibition
# Summary of the method: as §1
# A498 = assay: Cell panel screen (CellTiter-Glo); format: cell-based, human; conditions: Homo sapiens; A498 (listed under Lung), 20 micromolar, 72 hrs; read-out: Percent Inhibition
# Summary of the method: as §1
# CW-2 = assay: Cell panel screen (CellTiter-Glo); format: cell-based, human; conditions: Homo sapiens; CW-2 (Colon), 20 micromolar, 72 hrs; read-out: Percent Inhibition
# Summary of the method: as §1
# NCI-H1694 = assay: Cell panel screen (CellTiter-Glo); format: cell-based, human; conditions: Homo sapiens; NCI-H1694 (Lung), 20 micromolar, 72 hrs; read-out: Percent Inhibition
# Summary of the method: as §1
# TCCSUP = assay: Cell panel screen (CellTiter-Glo); format: cell-based, human; conditions: Homo sapiens, TCC-SUP; TCCSUP (Urinary bladder), 20 micromolar, 72 hrs; read-out: Percent Inhibition
# Summary of the method: as §1
# MSTO-211-H = assay: Cell panel screen (CellTiter-Glo); format: cell-based, human; conditions: Homo sapiens; MSTO-211-H (Lung), 20 micromolar, 72 hrs; read-out: Percent Inhibition
# Summary of the method: as §1
# T47D = assay: Cell panel screen (CellTiter-Glo); format: cell-based, human; conditions: Homo sapiens; T47D (Breast), 20 micromolar, 72 hrs; read-out: Percent Inhibition
# Summary of the method: as §1
# Panc 03.27 = assay: Cell panel screen (CellTiter-Glo); format: cell-based, human; conditions: Homo sapiens, PANC-03-27; Panc 03.27 (Pancreas), 20 micromolar, 72 hrs; read-out: Percent Inhibition
# Summary of the method: as §1
# NCI-H28 = assay: Cell panel screen (CellTiter-Glo); format: cell-based, human; conditions: Homo sapiens; NCI-H28 (Lung), 20 micromolar, 72 hrs; read-out: Percent Inhibition
# Summary of the method: as §1
# NCI-H524 = assay: Cell panel screen (CellTiter-Glo); format: cell-based, human; conditions: Homo sapiens; NCI-H524 (Lung), 20 micromolar, 72 hrs; read-out: Percent Inhibition
# Summary of the method: as §1
# HCC1937 = assay: Cell panel screen (CellTiter-Glo); format: cell-based, human; conditions: Homo sapiens; HCC1937 (Breast), 20 micromolar, 72 hrs; read-out: Percent Inhibition
# Summary of the method: as §1
# NCI-H1623 = assay: Cell panel screen (CellTiter-Glo); format: cell-based, human; conditions: Homo sapiens; NCI-H1623 (Lung), 20 micromolar, 72 hrs; read-out: Percent Inhibition
# Summary of the method: as §1
# SW13 = assay: Cell panel screen (CellTiter-Glo); format: cell-based, human; conditions: Homo sapiens; SW13 (Adrenal gland), 20 micromolar, 72 hrs; read-out: Percent Inhibition
# Summary of the method: as §1
# Colo 205 = assay: Cell panel screen (CellTiter-Glo); format: cell-based, human; conditions: Homo sapiens; Colo 205, 20 micromolar, 72 hrs; read-out: Percent Inhibition
# Summary of the method: as §1
# NCI-H1770 = assay: Cell panel screen (CellTiter-Glo); format: cell-based, human; conditions: Homo sapiens; NCI-H1770 (Lung), 20 micromolar, 72 hrs; read-out: Percent Inhibition
# Summary of the method: as §1
# NCI-H2347 = assay: Cell panel screen (CellTiter-Glo); format: cell-based, human; conditions: Homo sapiens; NCI-H2347 (Lung), 20 micromolar, 72 hrs; read-out: Percent Inhibition
# Summary of the method: as §1
# ZR-75-30 = assay: Cell panel screen (CellTiter-Glo); format: cell-based, human; conditions: Homo sapiens; ZR-75-30 (Breast), 20 micromolar, 72 hrs; read-out: Percent Inhibition
# Summary of the method: as §1
# T98G = assay: Cell panel screen (CellTiter-Glo); format: cell-based, human; conditions: Homo sapiens; T98G (Brain), 20 micromolar, 72 hrs; read-out: Percent Inhibition
# Summary of the method: as §1
# ChaGo-K-1 = assay: Cell panel screen (CellTiter-Glo); format: cell-based, human; conditions: Homo sapiens; ChaGo-K-1 (Lung), 20 micromolar, 72 hrs; read-out: Percent Inhibition
# Summary of the method: as §1
# NCI-H1650 cells = assay: Soft-agar colony formation assay; format: cell-based; conditions: Homo sapiens, 168 h; NCI-H1650 cells in soft agar, one week, Alamar Blue; read-out: IC50, cell colony formation
# Procedure: NCI-H1650 cells were plated in soft agar (Takara, Japan) at a density of 4000 cells/well in a 96-well plate. For the base layer, 1.2% agar stock solution was melted in an autoclave, cooled to 40°C in a water bath, and then mixed with RPMI1640 medium to obtain a solution of 0.6% agar in RPMI1640 containing 10% FBS. A cell suspension placed on the top layer was composed of RPMI1640 with 10% FBS and 0.4% agarose in each well. Then, the cells were incubated overnight. Compounds were added into the wells, and the NCI-H1650 cells were incubated for one week. After 7 days, alamar blue was added to the agar plate wells containing NCI-H1650 cell, and the plates were returned to the incubator. The fluorescence intensity (excitation 560 nm, emission 590 nm) was measured after 24 h.
Compound,inhibition at 20 µM (HCC1395) [%],inhibition at 20 µM (BT-549) [%],inhibition at 20 µM (NCI-H2405) [%],inhibition at 20 µM (HEC-1-A) [%],inhibition at 20 µM (Bel-7402) [%],inhibition at 20 µM (A498) [%],inhibition at 20 µM (CW-2) [%],inhibition at 20 µM (NCI-H1694) [%],inhibition at 20 µM (TCCSUP) [%],inhibition at 20 µM (MSTO-211-H) [%],inhibition at 20 µM (T47D) [%],inhibition at 20 µM (Panc 03.27) [%],inhibition at 20 µM (NCI-H28) [%],inhibition at 20 µM (NCI-H524) [%],inhibition at 20 µM (HCC1937) [%],inhibition at 20 µM (NCI-H1623) [%],inhibition at 20 µM (SW13) [%],inhibition at 20 µM (Colo 205) [%],inhibition at 20 µM (NCI-H1770) [%],inhibition at 20 µM (NCI-H2347) [%],further results
CC(C)=CCC/C(C)=C/Cc1c(O)c(CC=C(C)C)c2c(c1O)C(=O)C1=C[C@@H]3C[C@H]4C(C)(C)O[C@@](C/C=C(\C)C=O)(C3=O)[C@@]14O2 [GB49],99,99,99,99,98,88,99,100,99,99,99,98,97,100,99,99,99,100,99,98,inhibition at 20 µM (ZR-75-30): 100%; inhibition at 20 µM (T98G): 99%; inhibition at 20 µM (ChaGo-K-1): 99%; IC50 (NCI-H1650 cells): 3.92 ± 0.13 µM
"CC(C)=CCC[C@@]1(C)C=Cc2c(O)c3c(c(CCC(C)(C)O)c2O1)O[C@]12C(=C[C@@H]4C[C@H]1C(C)(C)O[C@@]2(C/C=C(/C)C(=O)O)C4=O)C3=O [GB39, 33-hydroxyepigambogic acid]",100,100,100,100,100,99,100,100,100,100,100,100,99,100,100,100,100,100,100,99,inhibition at 20 µM (ZR-75-30): 100%; inhibition at 20 µM (T98G): 100%; inhibition at 20 µM (ChaGo-K-1): 100%; IC50 (NCI-H1650 cells): 1.26 ± 0.01 µM
